Results: patent US20050256034A1, “Dioxolane analogs for improved inter-cellular delivery” (priority 2000, published 2005)
Values joined by “and” are separate entries in the source; they are usually repeats but may differ in a detail not shown here. Equal entries are not always repeated. Where two headings read alike, the source gives them in different places.

Experiments:
Type in all cases: cell-based
CEM/dCK- = assay: MMT or WST-1 assay at 72 hr; settings: CEM/dCK- versus CCRF-CEM
[1] = 3H-Thymidine Incorporation Assay (24 hr drug, wash, another 48 hr; 72 hr assay); settings: for Resistance Factor = Ratio of dCK- on Wild-type CCRF-CEM / Factor (Resistance Factor = Ratio of dCK- on Wild-type CCRF-CEM): ratio of IC50 CEM/dCK- to IC50 CCRF-CEM; for Factor (Resistance Factor = Ratio of dCK- on Wild-type CCRF-CEM): 24 h exposure
SF-268 = assay: MTT assay at 72 hr; settings: Homo sapiens, SF-268, read-out: IC50 (MTT at 72 hr) SF-268, 24 h exposure, single experiments
CEM cells = assay: CellTiter 96 cell proliferation assay, 48 h exposure; settings: for effect of es transport inhibitor NBMPR on resistance of CEM cells: presence of NBMPR
Procedure: The chemosensitivity of suspension cells lines (e.g., CEM or CEM-derivatives) is assessed using the CellTiter 96 ? proliferation assay. […] Chemosensitivity is expressed as 50% (ECso) of the dose response curve determined, e.g., using GraphPad Prism 2.01 (GraphPad Software, San Diego, Calif.). Adherent cell lines (e.g., DU145 or DU145^R) are seeded (˜10^5 cells) in triplicate dishes, 24 h before drug exposure. Growth inhibition is determined by trypsinization and counting cells electronically.

[2] = NCI-H460, read-out: IC50 (3H-TdR incorporation at 72 hr) H-460 24 h, H-460 human lung carcinoma, 24 hr exposure to drug, wash, another 48 hr
[3] = read-out: IC50 (3H-TdR incorporation at 72 hr) H-460 24 h, H-460 human lung carcinoma, 24 hr exposure to drug, wash, another 48 hr
[4] = read-out: IC50 (3H-TdR incorporation at 72 hr) MCF-7 24 h, MCF-7 human breast carcinoma, 24 hr exposure to drug, wash, another 48 hr
[5] = MCF7, read-out: IC50 (3H-TdR incorporation at 72 hr) MCF-7 24 h, MCF-7 human breast carcinoma, 24 hr exposure to drug, wash, another 48 hr
[6] = CCRF-CEM, read-out: IC50 (3H-TdR incorporation at 72 hr) CEM/dCK- 24 h, CEM/dCK- (CCRF-CEM deoxycytidine kinase-deficient), 24 hr exposure to drug, wash, another 48 hr
[7] = CCRF-CEM, read-out: IC50 (3H-TdR incorporation at 72 hr) CCRF-CEM 24 h, CCRF-CEM T-cell leukemia, 24 hr exposure to drug, wash, another 48 hr
[8] = SF-268, read-out: IC50 (3H-TdR incorporation at 72 hr) SF-268 24 h, SF-268 human central nervous system tumor, 24 hr exposure to drug, wash, another 48 hr

## CCCCC(C)(C)C(=O)OC[C@H]1OC[C@@H](n2ccc(N)nc2=O)O1.Cl [Compound 107, 2,2-DIMETHYLHEXANOIC ACID 4-(4-AMINO-2-OXO-2H-PYRI- MIDIN-1-YL)-1,3-DI- OXOLAN-2-YLMETHYL ESTER HYDROCHLORIDE]
CEM/dCK-
  Resistance Factor: 2,042

## Nc1ccn([C@@H]2CO[C@H](COC(=O)c3ccc(Cl)c(Cl)c3)O2)c(=O)n1 [Compound 187, 3,4-DICHLORO-BENZOIC ACID 4-(4-AMINO-2-OXO-2H-PYRI- MIDIN-1-YL)-[1,3]DI- OXOLAN-2-YL METHYL ESTER]
[1]; [2]
  IC50: 0.0014 µM
[1]; read-out: IC50 (3H-TdR incorporation at 72 hr) CCRF-CEM 24 h, CCRF-CEM T-cell leukemia, 24 hr exposure to drug, wash, another 48 hr
  IC50: 0.0016 µM
[1]; [3]
  IC50: 0.0011 µM
[1]; [4]
  IC50: 0.0051 µM

## Nc1ccn([C@@H]2CO[C@H](COC(=O)c3ccc(C(F)(F)F)cc3)O2)c(=O)n1 [Compound 189, 4-TRIFLUOROMETHYL-BENZOIC ACID 4-(4-A- MINO-2-OXO-2H-PYRI- MIDIN-1-YL)-[1,3]DI- OXOLAN-2-YL METHYL ESTER]
[1]; [5]
  IC50: 0.0033 µM
[1]; [2]
  IC50: 0.0012 µM
[1]; [3]
  IC50: 0.00068 µM
[1]; [4]
  IC50: 0.0037 µM

## Nc1ccn([C@@H]2CO[C@H](COC(=O)c3ccccc3F)O2)c(=O)n1 [Compound 190, 2-FLUORO-BENZOIC ACID 4-(4-AMINO-2-OXO-2H-PYRI- MIDIN-1-YL)-[1,3]DI- OXOLAN-2-YL METHYL ESTER]
[1]; [6]
  IC50: 9.8 µM
[1]; [5]
  IC50: 0.027 µM
[1]; [3]
  IC50: 0.0039 µM
[1]; [4]
  IC50: 0.016 µM

## CC(C)(C)OC(=O)NCCCCCC(=O)Nc1ccn([C@@H]2CO[C@H](CO)O2)c(=O)n1 [Compound 193, {5-[1-(2-HYDROXYMETHYL-[1,3]DI- OXOLAN-4-YL)-2-OX- O-1,2-DIHYDRO-PYRI- MIDIN-4-YLCARBA- MOYL]-PENTYL}-CARBAMIC ACID TERT-BUTYL ESTER]
[1]
  Resistance Factor = Ratio of dCK- on Wild-type CCRF-CEM: > 1700

## COc1ccc(C(OC)(OC)OC[C@H]2OC[C@@H](n3ccc(N)nc3=O)O2)cc1 [Compound 195, 4-AMINO-1-{2-[DI- METHOXY-(4-METHOXY-PHE- NYL)-METHOXYMETHYL]-[1,3]DI- OXOLAN-4-YL}-1#H!-PYRI- MIDIN-2-ONE]
[1]
  Resistance Factor = Ratio of dCK- on Wild-type CCRF-CEM: > 1560

## CCOC(OCC)(OCC)OC[C@H]1OC[C@@H](n2ccc(N)nc2=O)O1 [Compound 199, 4-Amino-1-(2-tri-ethoxymethoxymethyl-[1,3]di-oxolan-4-yl)-1H-pyri-midin-2-one]
[1]
  Resistance Factor = Ratio of dCK- on Wild-type CCRF-CEM: > 10600

## CC(=O)Oc1ccc(COC(=O)Nc2ccn([C@@H]3CO[C@H](COC(=O)OCc4ccc(OC(C)=O)cc4)O3)c(=O)n2)cc1 [Compound 202, Acetic acid 4-(1-{2-[4-(Acetyloxy)benzyloxycarbonyloxymethyl]-[1,3]dioxolan-4-yl}2-oxo-1,2-dihydropyrimidin-4-ylcarbamoyloxymethyl)-phenyl ester]
[1]
  Resistance Factor = Ratio of dCK- on Wild-type CCRF-CEM: > 1000

## Nc1ccn([C@@H]2CO[C@H](COC(=O)c3ccc([N+](=O)[O-])cc3)O2)c(=O)n1 [Compound 204, 4-NITRO-BENZOIC ACID 4-(4-A- MINO-2-OXO-2H-PYRI- MIDIN-1-YL)-[1,3]DI- OXOLAN-2-YL METHYL ESTER]
[1]; [7]
  IC50: 0.012 µM
[1]; [6]
  IC50: 19 µM
[1]; [5]
  IC50: 0.0086 µM
[1]; [2]
  IC50: 0.015 µM
[1]; [8]
  IC50: 0.025 µM
[1]
  Resistance Factor = Ratio of dCK- on Wild-type CCRF-CEM: 1 600

## Nc1ccn([C@@H]2CO[C@H](COC(=O)c3ccccc3Cc3ccccc3)O2)c(=O)n1 [Compound 220, BIPHENYL-2-CARBOXYLIC ACID 4-(4-AMINO-2-OXO-2H-PYRI- MIDIN-1-YL)-[1,3]DI- OXOLAN-2-YL METHYL ESTER]
[1]
  Resistance Factor = Ratio of dCK- on Wild-type CCRF-CEM: > 28600

## Nc1ccn([C@@H]2CO[C@H](COC(=O)C3(c4ccccc4)CC3)O2)c(=O)n1 [Compound 223, 1-PHENYL-CYCLO- PROPANECARBOXYLIC ACID 4-(4-AMINO-2-OXO-2H-PYRI- MIDIN-1-YL)-[1,3]DI- OXOLAN-2-YL METHYL ESTER]
[1]
  Resistance Factor = Ratio of dCK- on Wild-type CCRF-CEM: > 1610

## CC(C)(C(=O)OC[C@H]1OC[C@@H](n2ccc(N)nc2=O)O1)c1ccccc1[N+](=O)[O-].Cl [Compound 224, 2-METHYL-2-(2-NITRO-PHE- NYL)-PROPIONIC ACID 4-(4-AMINO-2-OXO-2H-PYRI- MIDIN-1-YL)-[1,3]DI- OXOLAN-2-YLMETHYL ESTER HYDROCHLORIDE SALT]
[1]; [7]
  IC50: 0.1 µM
[1]; [5]
  IC50: 6.9 µM
[1]; [2]
  IC50: 5.3 µM
[1]; [8]
  IC50: 21 µM
[1]
  Resistance Factor = Ratio of dCK- on Wild-type CCRF-CEM: > 1000

## Cc1ccc(C)c(OCCCC(C)(C)C(=O)OC[C@H]2OC[C@@H](n3ccc(N)nc3=O)O2)c1 [Compound 237]
[1]; [7]
  IC50: 0.0016 µM
[1]; [6]
  IC50: 18 µM
[1]; [5]
  IC50: ≤ 0.0001 µM
[1]; [2]
  IC50: 0.0026 µM
[1]; [8]
  IC50: 0.088 µM
[1]
  Resistance Factor = Ratio of dCK- on Wild-type CCRF-CEM: 11,250
SF-268
  IC50: 3.3 µM

## CCCCC[C@H]1CC[C@H](C(=O)OC[C@H]2OC[C@@H](n3ccc(N)nc3=O)O2)CC1 [Compound 240, 4-PENTYL-CYCLO- HEXANECARBOXYLIC ACID 4-(4-AMINO-2-OXO-2H-PYRI- MIDIN-1-YL)-[1,3]DI- OXOLAN-2-YL METHYL ESTER]
[1]
  Resistance Factor = Ratio of dCK- on Wild-type CCRF-CEM: ≧25 000

## CC(CCCCCCc1ccccc1)C(=O)OC[C@H]1OC[C@@H](n2ccc(N)nc2=O)O1 (stereo partly drawn) [Compound 245, 2-METHYL-8-PHENYL-OCTANOIC ACID 4-(4-AMINO-2-OXO-2H-PYRI- MIDIN-1-YL)-[1,3]DI- OXOLAN-2-YL METHYL ESTER]
[1]
  Resistance Factor = Ratio of dCK- on Wild-type CCRF-CEM: > 6800

## CC(C)C[C@H](N)C(=O)Nc1ccn([C@@H]2CO[C@H](CO)O2)c(=O)n1 [Compound 257, 2-AMINO-4-METHYL-PENTANOIC ACID[1-(2-HYDROXY- METHYL-[1,3]DIOXO- LAN-4-yl)-2-OXO-1,2-DIHYDRO-PYRI- MIDIN-4-YL]-AMIDE]
CEM/dCK-
  Resistance Factor: >19

## CC(C)C[C@H](NC(=O)[C@H](C)NC(=O)OC(C)(C)C)C(=O)Nc1ccn([C@@H]2CO[C@H](CO)O2)c(=O)n1 [Compound 263, (1-{1-[1-(2-HYDROXY- METHYL-[1,3]DIOXO- LAN-4-YL)-2-OXO-1,2-DI- HYDRO-PYRIMIDIN-4-YLCARBA- MOYL]-3-METHYL-BUTYL- CARBAMOYL}-ETHYL)-CARBAMIC ACID TERT-BUTYL ESTER]
CEM/dCK-
  Resistance Factor: >5 and >7

## CC(C)CCCCC(=O)Nc1ccn([C@@H]2CO[C@H](COC(=O)CCCCC(C)C)O2)c(=O)n1 [Compound 276, 6-METHYL-HEPTANOIC ACID 4-[4-(6-METHYL-HEPTANOYL- AMINO)-2-OXO-2H-PYRI- MIDIN-1-YL]-[1,3]DI- OXOLAN-2-YL METHYL ESTER]
[1]; CCRF-CEM, read-out: IC50 in μM (3H-TdR incorporation at 72 hr) CCRF-CEM 24 h, CCRF-CEM T-cell leukemia, 24 h exposure to drug, wash, another 48 hr
  IC50: 0.028 µM
[1]; MCF7, read-out: IC50 in μM (3H-TdR incorporation at 72 hr) MCF-7 (72 h), MCF-7 human breast carcinoma, 72 h exposure
  IC50: 0.0017 µM
[1]; NCI-H460, read-out: IC50 in μM (3H-TdR incorporation at 72 hr) H-460 (72 h), H-460 human lung carcinoma, 72 h exposure
  IC50: 0.025 µM
[1]; SF-268, read-out: IC50 in μM (3H-TdR incorporation at 72 hr) SF-268 (72 h), SF-268 human central nervous system tumor, 72 h exposure
  IC50: 0.018 µM
[1]
  Factor (Resistance Factor = Ratio of dCK- on Wild-type CCRF-CEM): 957

## CC(C)(C)C(=O)OC[C@H]1OC[C@@H](n2ccc(N)nc2=O)O1 [Compound 279, 2,2-DIMETHYL-PROPIONIC ACID 4-(4-AMINO-2-OXO-2H-PYRI- MIDIN-1-YL)-[1,3]DI- OXOLAN-2-YL METHYL ESTER]
[1]
  Factor (Resistance Factor = Ratio of dCK- on Wild-type CCRF-CEM): 1854 and >1205

## CC(C)[C@H](N)C(=O)Nc1ccn([C@@H]2CO[C@H](CO)O2)c(=O)n1.O=C(O)C(F)(F)F [Compound 280, 2-Amino-N-[1-(2-hydroxy-methyl-[1,3]dioxo-lan-4-yl)-2-oxo-1,2-di-hydro-pyrimidin-4-yl]-3-meth-yl-butyramide; trifluoroacetic acid salt]
[1]
  Factor (Resistance Factor = Ratio of dCK- on Wild-type CCRF-CEM): >53

## Nc1ccn([C@@H]2O[C@H](CO)[C@@H](O)[C@@H]2O)c(=O)n1 [Cytarabine, cytarabine]
CEM cells
  effect of es transport inhibitor NBMPR on resistance of CEM cells: significantly increased resistance

## Nc1ccn([C@@H]2O[C@H](CO)[C@@H](O)C2(F)F)c(=O)n1 [Gemcitabine, gemcitabine]
CEM cells; Homo sapiens, CCRF-CEM, 48 h, read-out: Chemosensitivity, 50% of the dose response curve (EC50), CEM + NBMPR (100 nM), 48 h exposure, mean ± SD
  EC50: 0.07 ± 0.018 µM
CEM cells
  effect of es transport inhibitor NBMPR on resistance of CEM cells: significantly increased resistance
